This passage reports IC50 results from BindingDB's records for doi:10.1016/j.bmcl.2006.12.077 (Glaxosmithkline, 2007).

The experiment has as its target Vascular endothelial growth factor receptor 2 (Homo sapiens, UniProt P35968). Kind of experiment: Homogeneous Time-Resolved Fluorescence (HTRF) Enzyme Assay. Conditions: pH 7.5; 22 °C. The protocol: The assay uses purified GST-Tie-2 or GST-6x His-VEGFR2 interacting with biotinylated peptide substrates. HTRF is based on the proximity of europium cryptate (donor fluorophore)-labeled antiphosphotyrosine and streptavidin labeled with APC (allophycocyanin), which have been brought together by a binding reaction. When the two entities come into close proximity and upon excitation, energy transfer occurs and APC re-emits at 665 nm. The IC50 values for inhibitors were determined by a four-parameter sigmoidal curve fit.
In general terms: TR-FRET usually uses a lanthanide donor and a delayed reading to cut background.

Chain of Vascular endothelial growth factor receptor 2 (P35968 whole entry): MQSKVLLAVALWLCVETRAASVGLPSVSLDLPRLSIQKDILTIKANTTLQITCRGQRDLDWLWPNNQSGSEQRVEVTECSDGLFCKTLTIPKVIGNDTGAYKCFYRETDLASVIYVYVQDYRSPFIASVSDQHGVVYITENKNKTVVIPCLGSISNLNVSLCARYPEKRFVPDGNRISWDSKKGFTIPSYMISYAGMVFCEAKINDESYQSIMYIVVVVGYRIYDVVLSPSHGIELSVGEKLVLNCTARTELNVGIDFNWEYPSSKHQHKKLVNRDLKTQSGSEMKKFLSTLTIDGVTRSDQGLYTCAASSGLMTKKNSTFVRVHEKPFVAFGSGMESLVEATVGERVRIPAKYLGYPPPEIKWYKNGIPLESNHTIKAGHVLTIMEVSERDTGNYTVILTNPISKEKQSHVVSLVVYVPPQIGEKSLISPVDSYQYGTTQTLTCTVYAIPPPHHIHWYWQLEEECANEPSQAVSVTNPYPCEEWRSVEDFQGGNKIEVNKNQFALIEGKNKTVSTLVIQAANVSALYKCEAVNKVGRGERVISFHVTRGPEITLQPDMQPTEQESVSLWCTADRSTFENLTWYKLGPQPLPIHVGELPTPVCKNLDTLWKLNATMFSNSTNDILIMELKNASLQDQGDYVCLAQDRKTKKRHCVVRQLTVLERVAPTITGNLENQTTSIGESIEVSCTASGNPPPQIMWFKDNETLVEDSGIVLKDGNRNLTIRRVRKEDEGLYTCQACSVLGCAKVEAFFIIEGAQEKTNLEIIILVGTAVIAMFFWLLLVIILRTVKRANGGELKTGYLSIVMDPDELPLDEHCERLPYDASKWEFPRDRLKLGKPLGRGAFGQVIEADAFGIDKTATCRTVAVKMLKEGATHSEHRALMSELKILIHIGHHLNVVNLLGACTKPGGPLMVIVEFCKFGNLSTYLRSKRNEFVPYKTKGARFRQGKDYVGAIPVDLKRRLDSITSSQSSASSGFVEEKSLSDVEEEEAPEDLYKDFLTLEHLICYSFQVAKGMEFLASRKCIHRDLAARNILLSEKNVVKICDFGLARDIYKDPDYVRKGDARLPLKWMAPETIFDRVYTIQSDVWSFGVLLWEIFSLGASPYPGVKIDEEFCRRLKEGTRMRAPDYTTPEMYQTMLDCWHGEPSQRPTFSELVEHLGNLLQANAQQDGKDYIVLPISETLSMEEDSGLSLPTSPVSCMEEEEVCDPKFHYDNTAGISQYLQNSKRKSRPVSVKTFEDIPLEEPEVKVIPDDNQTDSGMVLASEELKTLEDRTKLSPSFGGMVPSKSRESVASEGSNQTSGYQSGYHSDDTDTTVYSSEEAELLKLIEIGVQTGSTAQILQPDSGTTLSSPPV

A word on the IC50: it is the midpoint of a concentration-inhibition curve. A high value points to weaker potency. On to `Nc1ncnc2occ(-c3ccc(NC(=O)Nc4cc(C(F)(F)F)cc(C(F)(F)F)c4)cc3)c12` [3-(4-{4-aminofuro[2,3-d]pyrimidin-5-yl}phenyl)-1-[3,5-bis(trifluoromethyl)phenyl]urea], for which the IC50 amounted to 0.138 µM.
The same measure for `COc1ccc(-c2oc3ncnc(N)c3c2-c2ccc(NC(=O)Nc3cc(C(F)(F)F)ccc3F)cc2)cc1` [3-{4-[4-amino-6-(4-methoxyphenyl)furo[2,3-d]pyrimidin-5-yl]phenyl}-1-[2-fluoro-5-(trifluoromethyl)phenyl]urea]: 0.0155 µM.
